Values after ≈ are worked out from the molar mass of the structure shown.

Broadly, the MIC is the smallest concentration in the dilution series that meets the test's criterion for growth inhibition. A low value points to greater potency.

Holding throughout (assay): Minimum inhibitory concentration (agar medium)
Holding throughout (type): cell-based

The test system of assay [1] is Candida albicans IFO 1270. Particulars: IFO1270, 72 h; Candida albicans IFO 1270, 27° C., 3 days, Sabouraud dextrose agar. Here is the method: (§1) The minimum inhibitory concentrations (MIC) in vitro of the compounds 1 to 3 of the present invention against microorganisms belonging to the genera Candida and Aspergillus were determined. (1) The strains of the microorganisms used were as follows. The inoculation solutions were prepared at a concentration of 1×10^6 cells/ml. 2) Candida albicans IFO 1270 (2) As the medium, a Sabouraud dextrose agar medium (Difco: dextrose 2%, agar 1.8%, not adjusted in pH) was used. The samples of the compounds to be tested were used after dissolved in dimethyl sulfoxide. The concentrations of the samples were from […]. The agar media containing the different concentrations of the compounds to be tested were inoculated with the microorganisms, using a microplanter (Sakuma Seisakusho). The microorganisms belonging to the genera Candida were cultured at 27° C. for 3 days, and the microorganisms belonging to the genus Aspergillus at 27° C. for 5 days.

In another assay the test system is Candida krusei IFO 1395. Particulars: Pichia kudriavzevii, IFO1395, 72 h; Candida krusei IFO 1395, 27° C., 3 days, Sabouraud dextrose agar. Here is the method:
as §1, with “cells/ml. 5)” for “cells/ml. 2)”, “Candida krusei” for “Candida albicans”, “IFO 1395” for “IFO 1270”

For assay [2], the system named is Candida albicans IFO 1060. The note with it: IFO1060, 72 h; Candida albicans IFO 1060, 27° C., 3 days, Sabouraud dextrose agar. Here is the method:
as §1, with “cells/ml. 1)” for “cells/ml. 2)”, “IFO 1060” for “IFO 1270”

For assay [3], the system named is Candida albicans ATCC 762. Particulars: ATCC762, 72 h; Candida albicans ATCC 762, 27° C., 3 days, Sabouraud dextrose agar. Here is the method:
as §1, with “cells/ml. 3)” for “cells/ml. 2)”, “albicans ATCC 762” for “albicans IFO 1270”

For assay [4], the system named is Candida parapsilosis IFO 1396. Particulars: Lodderomyces parapsilosis, IFO1396, 72 h; Candida parapsilosis IFO 1396, 27° C., 3 days, Sabouraud dextrose agar. Here is the method: as §1, with “cells/ml. 6)” for “cells/ml. 2)”, “Candida parapsilosis” for “Candida albicans”, “IFO 1396” for “IFO 1270”
For assay [5], the system named is Aspergillus fumigatus IFO 9733. The note with it: IFO9733, 120 h; Aspergillus fumigatus IFO 9733, 27° C., 5 days, Sabouraud dextrose agar. Here is the method:
as §1, with “8) Aspergillus fumigatus” for “2) Candida albicans”, “9733” for “1270”

Assay [6] relates to Candida tropicaris IFO 1400. Particulars: IFO1400, 72 h; Candida tropicaris IFO 1400, 27° C., 3 days, Sabouraud dextrose agar. Here is the method:
as §1, with “cells/ml. 4)” for “cells/ml. 2)”, “Candida tropicaris” for “Candida albicans”, “IFO 1400” for “IFO 1270”

The test system of assay [7] is Aspergillus fumigatus IFO 5840. Particulars: IFO5840, 120 h; Aspergillus fumigatus IFO 5840, 27° C., 5 days, Sabouraud dextrose agar. Here is the method:
as §1, with “7) Aspergillus fumigatus” for “2) Candida albicans”, “5840” for “1270”

`CC1(C)CCC(c2ccc(F)cc2)CC1(O)Cn1ccnc1` (racemic) [Compound 1, 2,2-dimethyl-5-(4-fluorophenyl)-1-(1H-imidazol-1-ylmethyl)-cyclohexane-1-ol]: the MIC (in assay [1]; with Candida krusei IFO 1395; in assay [2]; in assay [3]; in assay [4]; in assay [5]) was 50 µg/mL (≈ 165 µM) in each case. The minimum inhibitory concentration (MIC) in assay [6] and in assay [7] was 50 µg/mL (≈ 165 µM) each time.
Take `CC1(C)CCC(c2ccc(Cl)cc2)CC1(O)Cn1ccnc1` (racemic) [Compound 2, 2,2-dimethyl-5-(4-chlorophenyl)-1-(1H-imidazol-1-ylmethyl)-cyclohexane-1-ol]: the MIC in assay [1] is 25 µg/mL (≈ 78.4 µM); with Candida krusei IFO 1395, over 100 µg/mL; in assay [2], 50 µg/mL (≈ 157 µM); in assay [3], 25 µg/mL (≈ 78.4 µM); in assay [4], over 100 µg/mL; in assay [5], 100 µg/mL (≈ 314 µM). In addition, the MIC in assay [6] and in assay [7] was 100 µg/mL (≈ 314 µM) each time.
Turning to `CC1(C)CC[C@@H](c2ccc(O)cc2)C[C@@]1(O)Cn1ccnc1` (relative stereo) [Compound 3, 2,2-dimethyl-5-(4-hydroxyphenyl)-1-(1H-imidazoly-1-yl-methyl)-cyclohexane-1-ol], the MIC came to 100 µg/mL (≈ 333 µM) in assay [1]; 200 µg/mL (≈ 666 µM) in the assay on Candida krusei IFO 1395; 50 µg/mL (≈ 166 µM) in assay [2]; 50 µg/mL (≈ 166 µM) in assay [3]; 200 µg/mL (≈ 666 µM) in assay [4]; 200 µg/mL (≈ 666 µM) in assay [5]. For the same compound, the minimal inhibitory concentration (MIC) in assay [6] came to 50 µg/mL (≈ 166 µM); in assay [7], 200 µg/mL (≈ 666 µM).
In the case of `OC1(Cn2ccnc2)CCCC(c2ccc(F)cc2)C1` (centres unmarked) [Compound C, 3-(4-fluorophenyl)-1-(1H-imidazol-1-ylmethyl)-cyclohexane-1-ol, reference compound], the MIC in assay [1] is 200 µg/mL (≈ 729 µM); in the assay with Candida krusei IFO 1395, over 400 µg/mL; in assay [2], 200 µg/mL (≈ 729 µM); in assay [3] it was 200 µg/mL (≈ 729 µM); in assay [4] it was over 400 µg/mL; in assay [5], over 400 µg/mL. The MIC in assay [6] and in assay [7] was over 400 µg/mL in each case.

The values are drawn from patent US5571831A, “Imidazole derivative, and pharmaceutical composition” (Kureha Chemical Industry Co., Ltd., priority 1992, dated 1996).
